Laboratory results reported in patent US20250064954A1, “STEROIDS AND ANTIBODY-CONJUGATES THEREOF” (REGENERON PHARMACEUTICALS, INC., priority 2018, published 2025).

How the values were obtained:
[1] = target: T1, Glucocorticoid Receptor (GR) (Homo sapiens, UniProt P04150); experiment: Cell based GR responsive luciferase reporter assay in HEK293/UASLuc/pBIND-GR cells; conditions: for EC50: HEK293/UASLuc/pBIND-GR cells, 48 hours; for EC50 values after spacer attachment relative to parent steroid: comparison
T1 construct: host or cells: HEK293 stably expressing human full length PRLR
T1 sequence (P04150 524-758 limits assumed): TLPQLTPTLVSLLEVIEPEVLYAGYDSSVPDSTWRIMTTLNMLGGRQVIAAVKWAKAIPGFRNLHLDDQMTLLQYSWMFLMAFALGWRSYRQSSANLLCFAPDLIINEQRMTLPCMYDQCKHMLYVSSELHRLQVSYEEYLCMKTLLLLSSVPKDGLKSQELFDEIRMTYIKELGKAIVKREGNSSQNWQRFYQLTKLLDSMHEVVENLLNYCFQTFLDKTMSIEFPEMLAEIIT
Text: A cell-based GR responsive luciferase reporter assay was used to test the GR agonist activity of compounds described herein. In this assay, the following materials were used.
To generate the assay cell line, HEK293 cells were co-transfected with the pBind-GR (Promega, Cat #E158A) and pGL4.35 [Luc2P/9xGAL4UAS/Hygro] (Promega, Cat #E137A) vectors. The pBind-GR vector expresses a fusion protein consisting of the yeast Gal4DNA-binding domain and the GR ligand binding domain, that can bind to the Gal4 upstream activation sequence (UAS) in the luciferase expression vector and induce luciferase expression following GR agonist binding. The cells were selected for at least 2 weeks in G418+ hygromycin. The resulting cell line is referred to as HEK293/UASLuc/pBIND-GR.
Three-fold serial dilutions of test compounds were prepared in 100% DMSO, transferred to fresh assay media, and added to the cells. […] The last well in the plate served as blank control containing only the assay media and 0.2% DMSO (untreated well) and was plotted as a continuation of the 3-fold serial dilution.
Forty-eight hours later, luciferase activity was determined after the addition of One-Glo™ reagent (Promega, Cat #E6130). Relative light units (RLUs) were measured on an Envision luminometer (PerkinElmer) and EC50 values were determined using a four-parameter logistic equation over a 10-point dose response curve (GraphPad Prism). The signal to noise (S/N) was determined by taking the ratio of the highest RLU on the dose response curve to the RLU in the untreated wells.

[2] = target: T1, Glucocorticoid Receptor (GR); experiment: as above; conditions: ratio of highest RLU on the dose response curve to RLU in untreated wells, 48 hours
[3] = Plasma stability in human plasma; assay type: in vitro ADME; conditions: 37° C.; for Percent Remaining (%) 1 h / Percent Remaining (%) 8 h / Percent Remaining (%) 24 h / Percent Remaining (%) […]: BQL: Below Quantitation Limit
Experimental: Plasma stability can be measured according to the following protocol.
Preheated 0.05 M sodium phosphate and 0.07 M NaCl buffer, pH 7.4: 14.505 g/L Na2HPO4_12H2O, 1.483 g/L NaH2PO4_2H2O and 4.095 g/L NaCl were dissolved in deionized water. The basic solution was then titrated with the phosphoric acid to pH 7.40 and stored refrigerated for up to 7 days. pH was checked on the day of experiment and adjusted if outside specification of 7.4+/−0.1.
Plasma preparation: frozen plasma were thawed by placing at 37° C. The plasma was centrifuged at 3,000 rpm for 8 minutes to remove clots, pipetted and the supernatant was pooled as the plasma to be used in the experiment. The pH of the plasma was checked and recorded and only used within the range of pH 7.4 to pH 8. If higher than pH 8, the plasma was discarded. The initial pH of the plasma was not adjusted to pH 7.4 with acid or by bubbling with CO2. By using a 5% CO2 incubator and PBS buffer, a pH of 7.4 was reached after a 4 hour equilibrium dialysis time. The plasma was put on ice until used.
Test compounds and reference compounds spiking solution. 0.5 mM test compounds spiking solution A: 10 μL of 10 mM test compounds stock solution was added to 190 μL DMSO. 0.02 mM spiking solution B: 40 μL of spiking solution A were added to 960 μL of 0.05 mM Sodium phosphate buffer with 0.5% BSA.
The plasma and spiking solution B were pre-warmed at 37° C. for 5 min. 10 μL of pre-warmed spiking solution B was added into the wells designated for all the time points (0, 0.25, 1, 8, 24 h). For 0-min, 400 μL of ACN containing 1S was added to the wells of 0-min plate and then 90 μL of plasma was added. 90 μL of pre-warmed plasma was added into the wells designated for the time points (0.25, 1, 8, 24 h), and start timing. At 0.25, 1, 8, 24 h, 400 μL of ACN containing IS was added to the wells of corresponding plates, respectively, to stop the reaction. After quenching, the plates were shaken on a vibrator (IKA, MTS 2/4) for 10 min (600 rpm/min) and then centrifuged at 5594 g for 15 min (Thermo Multifuge×3R). 50 μL of the supernatant from each well was transferred into a 96-well sample plate containing 50 μL of ultra pure water (Millipore, ZMQS50F01) for LC/MS analysis.

[4] = Solubility of payloads and linker-payloads; conditions: aqueous DMSO (20%)

CCCC1O[C@@H]2C[C@H]3[C@@H]4C[C@H](F)C5=CC(=O)C=C[C@]5(C)[C@@]4(F)[C@@H](O)C[C@]3(C)[C@]2(C(=O)CO)O1 (stereo in doubt) [Compound 100, (1S,2S,4R,8S,9S,11S,12R,13S,19S)-12,19-Difluoro-11-hydroxy-8-(2-hydroxyacetyl)-9,13-dimethyl-6-propyl-5,7-dioxapentacyclo[10.8.0.0^2,^9.0^4,^8.0^13,^18]icosa-14,17-dien-16-one]
fold more potent than 1a (budesonide) ([1]; EC50 comparison): 5.6 fold
fold more potent than Dexamethasone ([1]; EC50 comparison): 5.9 fold
EC50 [1]: 0.0547 nM
S/N [2]: 14.5

CCCC1O[C@@H]2C[C@H]3[C@@H]4CCC5=CC(=O)C=C[C@]5(C)[C@H]4[C@@H](O)C[C@]3(C)[C@]2(C(=O)COCNC(=O)CN)O1 (stereo partly drawn) [Compound 103a, 2-Amino-N-({2-[(1S,2S,4R,8S,9S,11S,12S,13R)-11-hydroxy-9,13-dimethyl-16-oxo-6-propyl-5,7-dioxapentacyclo[10.8.0.0^2,^9.0^4,^8.0^13,^18]icosa-14,17-dien-8-yl]-2-oxoethoxy}methyl)acetamide]
half-life at 2 µM [3]: 1010 min
Percent Remaining (%) 0 h [3]: 100.00%
Percent Remaining (%) 1 h [3]: 96.48%
Percent Remaining (%) 8 h [3]: 78.87%
Percent Remaining (%) 24 h [3]: 38.03%
Percent Remaining (%) […] [3]: 107.04%
EC50 [1]: 0.484 nM
EC50 values after spacer attachment relative to parent steroid [1]: comparable to 1a
S/N [2]: 14.6
solubility (physchem): < 20 µg/mL

CCCC1O[C@@H]2C[C@H]3[C@@H]4C[C@H](F)C5=CC(=O)C=C[C@]5(C)[C@@]4(F)[C@@H](O)C[C@]3(C)[C@]2(C(=O)COCNC(=O)CN)O1 (stereo partly drawn) [Compound 103b, 2-Amino-N-({2-[(1S,2S,4R,8S,9S,11S,12R,13S,19S)-12,19-difluoro-11-hydroxy-9,13-dimethyl-16-oxo-6-propyl-5,7-dioxapentacyclo[10.8.0.0^2,^9.0^4,^8.0^13,^18]icosa-14,17-dien-8-yl]-2-oxoethoxy}methyl)acetamide]
EC50 values after spacer attachment relative to parent steroid [1]: comparable to 100
S/N [2]: 16.6
solubility (physchem): < 20 µg/mL

CCCC1O[C@@H]2C[C@H]3[C@@H]4C[C@H](F)C5=CC(=O)C=C[C@]5(C)[C@@]4(F)[C@@H](O)C[C@]3(C)[C@]2(C(=O)COC(=O)c2ccc(CN)cc2)O1 (some centres unmarked) [Compound 105a]
fold less potent than 100 ([1]; EC50 comparison after spacer attachment to 100, text): 2.7 fold

CCCC1O[C@@H]2C[C@H]3[C@@H]4CCC5=CC(=O)C=C[C@]5(C)[C@H]4[C@@H](O)C[C@]3(C)[C@]2(C(=O)COCNC(=O)CNC(=O)OCc2ccc(NC(=O)[C@H](CCCNC(N)=O)NC(=O)[C@@H](NC(=O)CCOCCOCCOCCOCCNC(=O)CCC(=O)N3Cc4ccccc4C#Cc4ccccc43)C(C)C)cc2)O1 (some centres unmarked) [LP9]
solubility [4]: < 20 µg/mL

CCCC1O[C@@H]2C[C@H]3[C@@H]4C[C@H](F)C5=CC(=O)C=C[C@]5(C)[C@@]4(F)[C@@H](O)C[C@]3(C)[C@]2(C(=O)COCNC(=O)CNC(=O)OCc2ccc(NC(=O)[C@H](CCCNC(N)=O)NC(=O)[C@@H](NC(=O)CCOCCOCCOCCOCCNC(=O)CCC(=O)N3Cc4ccccc4C#Cc4ccccc43)C(C)C)cc2)O1 (some centres unmarked) [LP10]
solubility [4]: < 20 µg/mL

CCN(CC)CCOC(=O)c1ccc(N)cc1 [Procaine]
half-life at 2 µM [3]: < 15 min
Percent Remaining (%) 0 h [3]: 100.00%
Percent Remaining (%) 1 h [3]: BQL
Percent Remaining (%) 8 h [3]: BQL
Percent Remaining (%) 24 h [3]: BQL
Percent Remaining (%) […] [3]: BQL
